Patent US9226501B2, “Pesticidal compositions and processes related thereto” (Dow AgroSciences LLC, priority 2012, dated 2016)

Experiments:
[1] = tested on: Cabbage Looper (CL) (Trichoplusia ni); assay: Bioassay on cabbage looper (CL), 128-well diet tray assay; assay type: in vivo; conditions: for CL Rating: Table 5, prophetic compounds subsequently exemplified, cabbage looper; for pest or weed control at 50 µg/cm2: Trichoplusia ni, 168 h, % mortality, second instar larvae, 50 μg/cm^2 on artificial diet, five to seven days, 25° C., read-out: CL Rating
Procedure: (§1) Certain molecules disclosed in this document were tested against BAW, CEW and CL using procedures described in the following examples. In the reporting of the results, the “BAW & CEW & CL Rating Table” was used (See Table Section).
Bioassays on CL were conducted using a 128-well diet tray assay. One to five second instar CL larvae were placed in each well (3 mL) of the diet tray that had been previously filled with 1 mL of artificial diet to which 50 μg/cm^2 of the test compound (dissolved in 50 μL of 90:10 acetone-water mixture) had been applied (to each of eight wells) and then allowed to dry. Trays were covered with a clear self-adhesive cover, and held at 25° C., 14:10 light-dark for five to seven days. Percent mortality was recorded for the larvae in each well; activity in the eight wells was then averaged. The results are indicated in the table entitled “Table 4: Assay Results Part 2” (See Table Section).

[2] = tested on: Beet Armyworm (BAW) (spodoptera exigua); assay: Bioassay on beet armyworm (BAW), 128-well diet tray assay; assay type: in vivo; conditions: for pest or weed control at 50 µg/cm2: Spodoptera exigua, 168 h, % mortality, second instar larvae, 50 μg/cm^2 on artificial diet, five to seven days, 25° C., read-out: BAW Rating
Procedure: as §1
Bioassays on BAW were conducted using a 128-well diet tray assay. One to five second instar BAW larvae were placed in each well (3 mL) of the diet tray that had been previously filled with 1 mL of artificial diet to which 50 μg/cm^2 of the test compound (dissolved in 50 μL of 90:10 acetone-water mixture) had been applied (to each of eight wells) and then allowed to dry. Trays were covered with a clear self-adhesive cover, and held at 25° C., 14:10 light-dark for five to seven days. Percent mortality was recorded for the larvae in each well; activity in the eight wells was then averaged. The results are indicated in the tables entitled “Table 3: Assay Results Part 1” and “Table 4: Assay Results Part 2” (See Table Section).

[3] = Table 5, prophetic compounds subsequently exemplified, beet armyworm

SMILES | CL Rating [1] | BAW Rating [2, 3] | also measured
C[C@@H](NC(=O)c1ccc(/C=C/C(c2ccc(Br)c(Br)c2)C(F)(F)F)cc1C(F)(F)F)C(=O)NCC(F)(F)F (some centres unmarked) [P660] | A (50-100) | A (50-100) | 
C[C@@H](NC(=O)c1ccc(/C=C/C(c2cc(Br)c(Cl)c(Br)c2)C(F)(F)F)cc1Br)C(=O)NCC(F)(F)F (some centres unmarked) [FA26] |  |  | pest or weed control at 50 µg/cm2 [1]: 50 to 100%; pest or weed control at 50 µg/cm2 [2]: 50 to 100%
CCC[C@@H](NC(=O)c1ccc(/C=C/C(c2cc(Cl)c(Cl)c(Cl)c2)C(F)(F)F)cc1C)C(=O)NCC(F)(F)F (some centres unmarked) [FA25] |  |  | pest or weed control at 50 µg/cm2 [1]: 50 to 100%; pest or weed control at 50 µg/cm2 [2]: 50 to 100%
O=C(NCc1ccc(/C=C/C(c2cc(Cl)c(Cl)c(Cl)c2)C(F)(F)F)cc1C(F)(F)F)c1cccnc1 (centres unmarked) [CC23] |  |  | BAW Rating ([2]; Table 3, beet armyworm): A (50-100)
CC(C)(NC(=S)c1ccc(/C=C/C(c2cc(Cl)c(Cl)c(Cl)c2)C(F)(F)F)cc1Cl)C(=S)NCC(F)(F)F (centres unmarked) [FA10] |  |  | pest or weed control at 50 µg/cm2 [1]: 0 to 50%; pest or weed control at 50 µg/cm2 [2]: 0 to 50%
CC(NC(=O)CNC(=O)c1ccc(/C=C/C(c2cc(Cl)c(Cl)c(Cl)c2)C(F)(F)F)cc1C(F)(F)F)C(F)(F)F (centres unmarked) [P1591] | A (50-100) | A (50-100) | 
CC(NC(=O)CNC(=O)c1ccc(/C=C/C(c2cc(Cl)c(Cl)c(Cl)c2)C(F)(F)F)cc1Br)C(F)(F)F (centres unmarked) [P1589] | A (50-100) | A (50-100) | 
C=Cc1cc(/C=C/C(c2cc(Cl)c(Cl)c(Cl)c2)C(F)(F)F)ccc1C(=O)NCC(=O)NCC(F)(F)F (centres unmarked) [FA18] |  |  | pest or weed control at 50 µg/cm2 [1]: 50 to 100%; pest or weed control at 50 µg/cm2 [2]: 50 to 100%
C[C@@H](NC(=O)c1ccc(/C=C/C(c2cc(Br)cc(Br)c2)C(F)(F)F)cc1Br)C(=O)NCCF (some centres unmarked) [P2041] | A (50-100) | A (50-100) | 
C[C@@H](NC(=O)c1ccc(/C=C/C(c2cc(Cl)cc(Cl)c2)C(F)(F)C(F)(F)F)cc1C(F)(F)F)C(=O)NCC(F)(F)F (some centres unmarked) [P1693] | A (50-100) | A (50-100) | 
Cc1cc(/C=C/C(c2cc(Cl)c(Cl)c(Cl)c2)C(F)(F)F)ccc1C(=O)NCC(=O)NCC(F)F (centres unmarked) [FA2] |  |  | pest or weed control at 50 µg/cm2 [1]: 50 to 100%; pest or weed control at 50 µg/cm2 [2]: 50 to 100%
C[C@@H](NC(=O)c1ccc(/C=C/C(c2cc(Cl)c(Cl)c(Cl)c2)C(F)(F)F)cc1)C(=O)NCC(F)(F)F (some centres unmarked) [P1603] | A (50-100) | A (50-100) | 
Cc1cc(/C=C/C(c2cc(Cl)c(Cl)c(Cl)c2)C(F)(F)F)ccc1C(=O)NCCC(=O)NCC(F)(F)F (centres unmarked) [P1641] | A (50-100) | A (50-100) | 
Cc1cc(/C=C/C(c2cc(Cl)c(Cl)c(Cl)c2)C(F)(F)F)cc(C)c1C(=O)N[C@H](C)C(=O)NCC(F)(F)F (some centres unmarked) [FA28] |  |  | pest or weed control at 50 µg/cm2 [1]: 50 to 100%; pest or weed control at 50 µg/cm2 [2]: 50 to 100%
CC(NC(=O)CNC(=O)c1ccc(/C=C/C(c2cc(Br)cc(Br)c2)C(F)(F)F)cc1Br)C(F)(F)F (centres unmarked) [P2009] | A (50-100) | A (50-100) | 
C[C@@H](NC(=O)c1ccc(/C=C/C(c2cc(Br)cc(Br)c2)C(F)(F)F)cc1C(F)(F)F)C(=O)NCCC(F)(F)F (some centres unmarked) [P2058] | A (50-100) | A (50-100) | 
Cc1cc(/C=C/C(c2cc(Cl)c(Cl)c(Cl)c2)C(F)(F)F)ccc1C(=S)NCC(=O)NCC(F)(F)F (centres unmarked) [P1564] | A (50-100) | A (50-100) | 

SMILES | CL Rating [1] | BAW Rating [2, 3] | also measured
Cc1cc(C(/C=C/c2ccc(C(=O)N[C@H](C)C(=O)NCC(F)(F)F)c(Br)c2)C(F)(F)F)cc(C)c1F (some centres unmarked) [P514] | A (50-100) | A (50-100) | 
C[C@@H](NC(=O)c1ccc(/C=C/C(c2cc(Cl)cc(Cl)c2)C(F)(F)F)cc1C(F)(F)F)C(=O)NCC(F)(F)F (some centres unmarked) [P1698] | A (50-100) | A (50-100) | 
Cc1cc(/C=C/C(c2cc(Cl)c(Cl)c(Cl)c2)C(F)(F)F)ccc1C(=O)NCC(=O)NC(C)C(F)(F)F (centres unmarked) [P1592] | A (50-100) | A (50-100) | 
Cc1cc(/C=C/C(c2cc(Cl)c(Cl)c(Cl)c2)C(F)(F)F)ccc1C(=S)NCC(=S)NCC(F)(F)F (centres unmarked) [P15] | A (50-100) | A (50-100) | 
C[C@@H](NC(=O)c1ccc(/C=C/C(c2cc(Br)cc(Br)c2)C(F)(F)F)cc1Br)C(=O)NCCC(F)(F)F (some centres unmarked) [P2056] | A (50-100) | A (50-100) | 
O=C(CNC(=O)c1ccc(/C=C/C(c2cc(Cl)cc(C(F)(F)F)c2)C(F)(F)F)cc1Br)NCC(F)(F)F (centres unmarked) [P1411] | A (50-100) | A (50-100) | 
C[C@@H](NC(=O)c1ccc(/C=C/C(c2cc(F)cc(Br)c2)C(F)(F)F)cc1Br)C(=O)NCC(F)(F)F (some centres unmarked) [P298] | A (50-100) |  | 
N#Cc1c(F)cc(C(/C=C/c2ccc(C(=O)NCC(=O)NCC(F)(F)F)c(Br)c2)C(F)(F)F)cc1F (centres unmarked) [P2] | A (50-100) |  | 
O=C(NCCc1ccc(Cl)nc1)c1ccc(/C=C/C(c2cc(Cl)c(Cl)c(Cl)c2)C(F)(F)F)cc1Br (centres unmarked) [AC113] |  |  | BAW Rating ([2]; Table 3, beet armyworm): B (More than 0-Less than 50)
O=C(CCNC(=O)c1ccc(/C=C/C(c2cc(Cl)c(Cl)c(Cl)c2)C(F)(F)F)cc1C(F)(F)F)NCC(F)(F)F (centres unmarked) [P1640] | A (50-100) |  | 
O=C(NCC(=S)NCC(F)(F)F)c1ccc(/C=C/C(c2cc(Cl)c(Cl)c(Cl)c2)C(F)(F)F)cc1Br (centres unmarked) [AC92, (E)-2-Bromo-N-(2-thioxo-2-((2,2,2-trifluoroethyl)amino)ethyl)-4-(4,4,4-trifluoro-3-(3,4,5-trichlorophenyl)but-1-en-1-yl)benzamide] |  |  | BAW Rating ([2]; Table 3, beet armyworm): A (50-100)
CCNC(=O)NCc1ccc(/C=C/C(c2cc(Cl)cc(Cl)c2)C(F)(F)F)cc1Cl (centres unmarked) [CC31, (E)-1-(2-Chloro-4-(3-(3,5-dichlorophenyl)-4,4,4-trifluorobut-1-en-1-yl)benzyl)-3-ethylurea] |  |  | BAW Rating ([2]; Table 3, beet armyworm): B (More than 0-Less than 50)
O=C(NC1CCN(C2COC2)CC1)c1ccc(/C=C/C(c2cc(Cl)c(Cl)c(Cl)c2)C(F)(F)F)cc1Br (centres unmarked) [AC108, (E)-2-Bromo-N-(1-(oxetan-3-yl)piperidin-4-yl)-4-(4,4,4-trifluoro-3-(3,4,5-trichlorophenyl)but-1-en-1-yl)benzamide] |  |  | BAW Rating ([2]; Table 3, beet armyworm): B (More than 0-Less than 50)
N#CCN1CCC(NC(=O)c2ccc(/C=C/C(c3cc(Cl)c(Cl)c(Cl)c3)C(F)(F)F)cc2Br)CC1 (centres unmarked) [AC107] |  |  | BAW Rating ([2]; Table 3, beet armyworm): B (More than 0-Less than 50)
CS(=O)(=O)c1cc(/C=C/C(c2cc(Cl)c(F)c(Cl)c2)C(F)(F)F)ccc1C(=O)NCC(=O)NCC(F)(F)F (centres unmarked) [FA34] |  |  | pest or weed control at 50 µg/cm2 [1]: 50 to 100%
FC(F)(F)C(/C=C/c1ccc(-n2cncn2)cc1)c1ccccc1 (centres unmarked) [DC3] |  |  | BAW Rating ([2]; Table 3, beet armyworm): B (More than 0-Less than 50)
O=C(CNC(=O)c1ccc(/C=C/C(c2cc(Cl)c(O)c(Cl)c2)C(F)(F)F)cc1Br)NCC(F)(F)F (centres unmarked) [FA13] |  |  | pest or weed control at 50 µg/cm2 [1]: 50 to 100%
